# Laboratory results reported in patent US5854010A, “Bioassay for detecting 2,3,7,8-tetrachlorodibenzo-para-dioxin and TCDD-like compounds and novel recombinant cell line useful therefor” (priority 1997, dated 1998).
# Read-outs that look alike come from different tables or passages of the source.
# Key:
# [1] = tested on: HG2L1.1c3 cells; assay: TCDD-inducible luciferase activity, stably transfected clonal cell line; type: cell-based, human; conditions: 24 h
# Protocol: (§1) Using the stabilized luciferase assay system (purchased from Promega), luciferase activity in an aliquot of the cleared lysed cell supernatant (20 μl) was determined by mixing it with 100 µl of luciferase assay reagent (purchased from Promega) and measuring the resulting luminescence in a Turner Luminometer or Dynatech ML3000 microplate luminometer (light output was integrated over 1 minute after a delay time of 30 seconds).
# Using a microplate adaptation of the method reported by Bradford in "A Rapid Sensitive Method for the Quantitation of Microgram Quantities of Protein Utilizing the Principle of Protein-Dye Binding", Anal. Biochem., […], pp. 248-254 (1976), luciferase activity was standardized to the protein concentration of the supernatant (with bovine serum albumin as the protein standard). Because of instrument differences in luminescence measurement and data output, luciferase activity was determined as relative light units (RLU) per microgram of protein, which was converted to milligram of protein as reported in the Tables below. […]
# (§2) More particularly, isolated clones were grown until confluent, and then incubated in the absence or presence of TCDD (1 nM solubilized in DMSO) for 24 hours. After the incubation, luciferase activity was determined as described above.
# [2] = tested on: MLEL1.1c1 cells; assay: as above; type: cell-based, mouse; conditions: 24 h
# Protocol: as §1
# (§3) Using a microplate adaptation of the method reported by Bradford in "A Rapid Sensitive Method for the Quantitation of Microgram Quantities of Protein Utilizing the Principle of Protein-Dye Binding", Anal. Biochem., […], pp. 248-254 (1976), luciferase activity was standardized to the protein concentration of the supernatant (with bovine serum albumin as the protein standard). Because of instrument differences in luminescence measurement and data output, luciferase activity was determined as relative light units (RLU) per microgram of protein, which was converted to milligram of protein as reported in the Tables below.
# (§4) Cells from each of these five stable cell lines were cotransfected with the vectors, pGudLuc1.1 and pSV2neo (15 μg of each). Following a 24 hour incubation, the cotransfected cells were split 1 to 10 and replated into a selective medium containing the antibiotic, G418. After 2-3 weeks of growth, individual cell colonies were identified and isolated. Although numerous inducible cell clones were isolated, many contained high constitutive luciferase activity, possibly due to integration of the plasmid (or a truncated form of the plasmid) into a genomic site which allows the promoter to be continually active. […] The clones with the greatest ratio of inducible to constitutive luciferase activity were selected for further characterization.
# as §2
# [3] = tested on: H1L1.1 cells; assay: as above; type: cell-based, mouse; conditions: 24 h
# Protocol: as §1, §3, §4, §2
# [4] = tested on: hamster lung AHL cells; assay: TCDD-inducible luciferase activity, transient transfection with pGudLuc1.1; type: cell-based
# Protocol: (§5) In general, the expression vectors pGudLuc1.0 and pGudLuc1.1 were prepared as follows. A 1330-bp HindIII fragment or an 1810-bp HindIII fragment isolated from the plasmid, pMpap1.0 or pMpap1.1, respectively (see, El-Fouly et al., supra), was subcloned into the HindIII site immediately upstream of the luciferase gene in the plasmid pGL2-basic (purchased from Promega).
# (§6) More specifically, the following cells were obtained from the source indicated. Wild-type and AhR-defective (BPRc1 and TAO, respectively) mouse hepatoma (Hepa1c1c7) cells (Hepa1), derived from a C57B1 mouse liver tumor, were obtained from J. P. Whitlock, Jr. (Stanford University). These cells were grown as previously described by Miller et al. in "Biochemical and Genetic Analysis of Variant Mouse Hepatoma Cells Defective in the Induction of Benzo(a)pyrene Metabolizing Enzyme Activity", J. Biol. Chem., Vol. 258, pp. 3523-3527 (1983). Additionally, mouse hepatoma (MLE/BV) cells, derived from a spontaneously immortalized C3H/HeN mouse liver cell, were obtained from B. V. Madhukar (Indiana University School of Medicine, Indianapolis, Ind.) and were grown as described for the Hepa1 cells. Rat hepatoma (H4IIe) cells, guinea pig intestinal adenocarcinoma (GPC16) cells, hamster lung (AHL) cells, human hepatoma (HepG2) cells, human breast tumor (MCF7) cells, and human intestinal epithelial (LS180) cells were obtained from the American Type Culture Collection (Rockville, Md.). Until transfection, all of the cells were maintained according to their respective cell-type-specific culture protocols.
# (§7) Transfection was accomplished as follows. Using polybrene as previously described by Helferich et al. in "Photooxidized Products of Tryptophan Can Act as Dioxin Agonists", Mol. Pharmacol., Vol. 40, pp. 674-678 (1991), plates of cells (approximately 80% confluent) were transiently transfected with the desired plasmid (15 μg). Then, the transfected cells were allowed to grow for 48 hours, followed by the addition of either DMSO (1 μl/ml) or TCDD (1 nM) solubilized in DMSO, which was followed by incubation for 24 hours. Next, the plates were transferred onto ice, and the media were removed, after which the plates were rinsed twice with cold PBS. Then, 200 μl of luciferase lysis buffer (purchased from Promega) was used to lyse the cells. The lysed cell samples were collected and transferred into a microfuge tube. Cell debris was pelleted by centrifugation, and the supernatants were collected. The supernatant samples were assayed for TCDD-inducible luciferase activity in the following manner.
# as §1, §3
# [5] = tested on: human intestinal epithelial LS180 cells; assay: as above; type: cell-based
# Protocol: as §5, §6, §7, §1, §3
# [6] = tested on: mouse hepatoma Hepa1c1c7 cells (wild type); assay: as above; type: cell-based
# Protocol: as §5, §6, §7, §1, §3
# [7] = tested on: human hepatoma HepG2 cells; assay: as above; type: cell-based
# Protocol: as §5, §6, §7, §1, §3
# [8] = tested on: human breast tumor MCF7 cells; assay: as above; type: cell-based
# Protocol: as §5, §6, §7, §1, §3
# [9] = tested on: guinea pig intestinal adenocarcinoma GPC16 cells; assay: as above; type: cell-based
# Protocol: as §5, §6, §7, §1, §3
# [10] = tested on: rat hepatoma H4IIE cells; assay: as above; type: cell-based
# Protocol: as §5, §6, §7, §1, §3
# [11] = TCDD 1 nM, mean ± SD of triplicate assays
# [12] = Mus musculus, TCDD 1 nM vs DMSO
smiles,measurement,setting,value
"Clc1cc2c(cc1Cl)Oc1cc(Cl)c(Cl)cc1O2 [TCDD, 2,3,7,8-tetrachlorodibenzo-para-dioxin]",fold induction,"[1]; Homo sapiens, TCDD 1 nM vs DMSO",29
same,"Luciferase activity, TCDD in DMSO",[1]; [11],25.04 ± 1.88 RLU/mg protein
same,fold induction,[2]; [12],14
same,"Luciferase activity, TCDD in DMSO",[2]; [11],0.29 ± 0.05 RLU/mg protein
same,fold induction,[3]; [12],74
same,"Luciferase activity, TCDD in DMSO",[3]; [11],5.92 ± 0.70 RLU/mg protein
same,"Luciferase activity, TCDD in DMSO","[4]; Luc1.1, TCDD 1 nM, 24 h",174 RLU/mg protein
same,fold induction,"[4]; Mesocricetus auratus, Luc1.1, TCDD 1 nM vs DMSO",5.8
same,fold induction,"[5]; Homo sapiens, LS180, Luc1.1, TCDD 1 nM vs DMSO",18.6
same,"Luciferase activity, TCDD in DMSO","[5]; Luc1.1, TCDD 1 nM, 24 h",26.0 RLU/mg protein
same,fold induction,"[6]; Luc1.1, TCDD 1 nM vs DMSO, 0.001 µM",60 Fold
same,"Luciferase activity, TCDD in DMSO","[6]; Luc1.1, TCDD 1 nM, 24 h, mean of triplicate transfections",12.1 RLU/mg protein
same,fold induction,"[6]; Mus musculus, Hepa-1c1c7, Luc1.1, TCDD 1 nM vs DMSO, read-out: Fold induction",60.5
same,fold induction,"[7]; Homo sapiens, HepG2, Luc1.1, TCDD 1 nM vs DMSO",66.3
same,"Luciferase activity, TCDD in DMSO","[7]; Luc1.1, TCDD 1 nM, 24 h",690 RLU/mg protein
same,fold induction,"[8]; Homo sapiens, MCF7, Luc1.1, TCDD 1 nM vs DMSO",33.4
same,"Luciferase activity, TCDD in DMSO","[8]; Luc1.1, TCDD 1 nM, 24 h",63.5 RLU/mg protein
same,fold induction,"[9]; Cavia porcellus, Luc1.1, TCDD 1 nM vs DMSO",7.6
same,"Luciferase activity, TCDD in DMSO","[9]; Luc1.1, TCDD 1 nM, 24 h",28.8 RLU/mg protein
same,"Luciferase activity, TCDD in DMSO","[10]; Luc1.1, TCDD 1 nM, 24 h",34.2 RLU/mg protein
same,fold induction,"[10]; Rattus norvegicus, H4IIE, Luc1.1, TCDD 1 nM vs DMSO",28.5
